Experimental data published in US20260102356A1, “METHOD FOR LOADING DIMERIC CD24 INTO HEK293 CELL EXTRACELLULAR VESICLES WITH ADAM10 GENE KNOCKED OUT” (Exocure Sweden AB, priority 2022, published 2026).
Where “and” joins values, the source holds several entries; their conditions need not be identical. Identical values can stand only once.

Legend:
Type in all cases: cell-based, human
PBMCs [1] = assay: PBMC inflammation model (anti-CD3/anti-CD28), IFN-γ in supernatant, Example 2; conditions: anti_hCD3 + anti_hCD28 1 μg/mL, treatment 10 μg/mL, 72 h
Procedure: Detection of the immunosuppressive activity of different EVs and proteins in a PBMC inflammation model: PBMCs were used for the experiment. An inflammation model was established by using 1 μg/ml anti-human CD3 Antibody (coated) and 1 μg/ml anti-human CD28 Antibody (free). The positive drug (dexamethasone), free CD24-Fc protein, and various doses of engineered dimeric CD24-loaded EV and monomer CD24-loaded EV were administered for 72 h, and their inhibitory activity on the inflammatory response of PBMCs was assessed.

PBMCs [2] = assay: PBMC inflammation model (anti-CD3/anti-CD28), IFN-γ in supernatant, Example 4; conditions: for IFN-γ_pg/mL-Mean / Detected IFN-γ concentration: PBMC supernatant, anti_hCD3 + anti_hCD28 1 μg/mL, treatment 10 μg/mL, 72 h; for Detected IFN-γ concentration: single replicates
Procedure: Detection of the immunosuppressive activity of different EVs and proteins in a PBMC inflammation model: PBMCs were used for the experiment. An inflammation model was established by using […] anti-human CD3 Antibody (coated) and 1 μg/ml anti-human CD28 Antibody (free). The positive drug (dexamethasone), free ApoE protein, and various doses of engineered dimeric ApoE-loaded EV were administered for 72 h, and their inhibitory activity on the inflammatory response of PBMCs was assessed.

PBMCs [3] = assay: PBMC inflammation model (anti-CD3/anti-CD28), IFN-γ in supernatant, Example 6
Procedure: • (1) Preparation of dimeric CD24-Exosomes: The plasmid construction, cell line screening and exosome preparation processes were consistent with those in Example 1. • (2) Loading of MyD88 Inhibitor Polypeptide: dimeric CD24 exosomes were mixed well with MyD88 inhibitor polypeptide (1 mg of MyD88 added to 1E+12 exosome particles). The solution was adjusted to a pH of 8.0 (or 9.0, 10.0) with Na2CO3, and then purified using Capto core700 to remove free MyD88 inhibitor polypeptide. The flow-through was collected to obtain CD24 exosomes loaded with MyD88 inhibitor polypeptide. The loading amount of MyD88 inhibitor polypeptide was assessed using ELISA (peptide loading technology referenced in patent: 202111263036.5). • (3) Detection of the immunosuppressive activity of different EVs and proteins in a PBMC inflammation model: PBMCs were used for the experiment. An inflammation model was established by using 1 μg/ml anti-human CD3 Antibody (coated) and 1 μg/ml anti-human CD28 Antibody (free). The positive drug (dexamethasone), free CD24-Fc fusion protein, and various doses of engineered dimeric CD24 loaded-EV and engineered dimeric CD24+MyD88 inhibitor polypeptide loaded-EV were administered for 72 h or 120 h, and their inhibitory activity on the inflammatory response of PBMCs was assessed

[4] = in vitro PBMC inflammation model

Compound	IFN-γ_pg/mL-Mean (PBMCs [1]) [pg/mL]	Detected IFN-γ concentration (PBMCs [1]; single replicates)	IFN-γ_pg/mL-Mean (PBMCs [2]) [pg/mL]	Detected IFN-γ concentration (PBMCs [2])	IFN-γ_pg/mL-Mean (PBMCs [3]; PBMC supernatant, treatment time 72 h, treatment 10 μg/mL) [pg/mL]	Detected IFN-γ concentration (PBMCs [3]; PBMC supernatant, treatment time 72 h, treatment 10 μg/mL, single replicates)	inflammation inhibitory activity compared to the model group (PBMCs [2]; [4])	inflammation inhibitory activity compared to the model group (PBMCs [3]; [4])
C[C@@H]1C[C@H]2[C@@H]3CCC4=CC(=O)C=C[C@]4(C)[C@@]3(F)[C@@H](O)C[C@]2(C)[C@@]1(O)C(=O)CO [Dexamethasone, dexamethasone]	6.0	5.62 pg/mL and 5.78 pg/mL and 6.51 pg/mL	5.8	5.5 pg/mL and 5.8 pg/mL and 6.2 pg/mL	4.5	4.32 pg/mL and 4.76 pg/mL and 4.5 pg/mL	–	–
ApoE: free ApoE protein, comparator	–	–	18092.0	18563 pg/mL and 17689 pg/mL and 18024 pg/mL	–	–	better inflammation inhibitory activity	better inflammation inhibitory activity
